In article PMC11872507, “Lasso peptides sviceucin and siamycin I exhibit anti-virulence activity and restore vancomycin effectiveness in vancomycin-resistant pathogens” (iScience, 2025):
≈ marks a conversion by molar mass, not a printed value. Positions of bridges follow the written chain, without caps; N, C: chain ends. Residues, ends and D or L forms follow the SMILES beside them. No end group written: not given here.

How the values were obtained:
[1] = test system: E. faecalis V583; assay: microbe, parasite or virus in culture; format: cell-based, Enterococcus faecalis; conditions: peptide alone, without vancomycin; VanB
[2] = test system: E. faecalis JH2-2 08048; assay: microbe, parasite or virus in culture; format: cell-based, Enterococcus faecalis; conditions: peptide alone, without vancomycin; VanB
Protocol: (§1) The MIC of vancomycin was determined by the microdilution method described in the guidelines of the European Committee on Antimicrobial Susceptibility Testing (EUCAST 2024, v14.0 Breakpoint Tables).[58] For enterococci, GM17 medium was used instead of CAMH medium since enterococci cannot degrade starch, the main carbohydrate of MH medium. 2-fold serial dilutions of the tested antibiotic were performed to obtain concentrations ranging from 0.5 to 512 μg/mL. LP were then added to the wells at the desired concentration. The medium was inoculated with a final inoculum of 5 × 10^5 CFU/mL. The MIC is the lowest concentration that prevents visible in vitro growth.

[3] = test system: E. faecalis merz96; assay: microbe, parasite or virus in culture; format: cell-based, Enterococcus faecalis; conditions: peptide alone, without vancomycin; VanB
[4] = test system: E. faecium 1 231 410; assay: microbe, parasite or virus in culture; format: cell-based, Enterococcus faecium; conditions: peptide alone, without vancomycin; VanA
[5] = test system: E. faecalis HIP11704; assay: microbe, parasite or virus in culture; format: cell-based, Enterococcus faecalis; conditions: peptide alone, without vancomycin; VanA
[6] = test system: E. faecium 1 231 502; assay: microbe, parasite or virus in culture; format: cell-based, Enterococcus faecium; conditions: peptide alone, without vancomycin; VanA
[7] = test system: E. faecium 1 230 933; assay: microbe, parasite or virus in culture; format: cell-based, Enterococcus faecium; conditions: peptide alone, without vancomycin; VanA
[8] = test system: S. aureus T-SAR12 VRSA.A; assay: microbe, parasite or virus in culture; format: cell-based, Staphylococcus aureus; conditions: peptide alone, without vancomycin; VanA
Protocol: as §1

[9] = test system: S. aureus T-SAR12 VRSA.B; assay: microbe, parasite or virus in culture; format: cell-based, Staphylococcus aureus; conditions: peptide alone, without vancomycin; VanB
Protocol: as §1

[10] = test system: E. faecalis V583 ΔvanB; assay: microbe, parasite or virus in culture; format: cell-based, Enterococcus faecalis; conditions: peptide alone, without vancomycin; van-
[11] = test system: S. aureus 16038 (VISA); assay: microbe, parasite or virus in culture; format: cell-based, Staphylococcus aureus; conditions: peptide alone, without vancomycin; van-
[12] = target: T1, VanS^127-384 (VanA-type, C-His6) (Enterococcus faecium, UniProt Q06240); assay: biochemical
T1 construct: only the C-terminal His6-tagged VanA-type VanS^127-384 could be obtained as a soluble protein; made in house; host or cells: E. coli BL21(DE3), plasmid pET29b(+) vanS^127-384
Protocol: (§2) Terrific medium[68] […] The culture was incubated at 37°C with agitation at 180 rpm. Induction of protein expression was achieved by adding IPTG to a final concentration of 0.1 mM when the bacterial density reached an OD600 of 0.5. The culture was then incubated for 20 h at 25°C with agitation at 180 rpm. The cells were then washed twice in purification buffer (20 mM sodium phosphate buffer, 500 mM NaCl, 5 mM MgCl2, 10 mM imidazole (pH 7.4)). Cells were treated with lysozyme at 1 mg/mL final concentration for 30 min at 4°C and lysed by sonication with the Fisherbrand Model 120 Sonic Dismembrator (Fisher scientific, USA). The total fraction recovered was centrifuged at 10000 rpm at 4°C for 30 to 45 min and only the supernatant, representing the soluble fraction, was recovered for purification.
(§3) Protein purification was carried out on a HisTrap FF Crude 5 mL column (Cytiva, USA) using the ÄKTA start device (Cytiva, USA), following the manufacturer’s recommendations. […] Protein concentration was determined with the Pierce BCA Protein Assay Kit (Thermo Scientific, USA) according to the manufacturer’s recommendations and then stored at −80°C.
(§4) The phosphorylation assay followed reported procedure with some modifications.[38] […] The reaction was allowed to start by adding ATP and NADH, and monitored continuously at 340 nm at 37°C by a microplate reader (POLARstar OMEGA, BMG Labtech, Germany). […]

[13] = target: T2, VanS^127-384 (Enterococcus faecium, UniProt Q06240); assay: biochemical; format: binding
T2 construct: only the C-terminal His6-tagged VanA-type VanS^127-384 could be obtained as a soluble protein; made in house; host or cells: E. coli BL21(DE3), plasmid pET29b(+) vanS^127-384

[14] = test system: all tested E. faecalis and E. faecium strains; assay: Growth inhibition / MIC, strain panel; format: cell-based; conditions: peptide alone
[15] = test system: VanB- or VanA-type strains; conditions: same among the different VanB- or VanA-type strains
Protocol: as §1

[16] = target: T3, VanS^127-384 (VanA-type, C-His6) (Enterococcus faecium, UniProt Q06240); assay: biochemical; conditions: 0–100 μM peptide
T3 construct: only the C-terminal His6-tagged VanA-type VanS^127-384 could be obtained as a soluble protein; made in house; host or cells: E. coli BL21(DE3), plasmid pET29b(+) vanS^127-384
T3 sequence (Q06240 whole entry, looked up): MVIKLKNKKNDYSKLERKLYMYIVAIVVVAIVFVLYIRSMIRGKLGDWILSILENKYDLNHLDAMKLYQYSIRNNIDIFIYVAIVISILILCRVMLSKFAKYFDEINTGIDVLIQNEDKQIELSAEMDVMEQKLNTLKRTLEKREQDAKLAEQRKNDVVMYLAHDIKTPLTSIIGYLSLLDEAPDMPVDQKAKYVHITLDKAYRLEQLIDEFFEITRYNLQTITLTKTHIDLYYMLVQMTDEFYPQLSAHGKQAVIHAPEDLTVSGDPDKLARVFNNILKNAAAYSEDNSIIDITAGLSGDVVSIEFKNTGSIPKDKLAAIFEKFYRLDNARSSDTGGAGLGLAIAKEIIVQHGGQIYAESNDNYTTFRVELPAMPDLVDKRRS
Protocol: as §2, §3, §4

[17] = target: T4, VanS^127-384 (Enterococcus faecium, UniProt Q06240); assay: biochemical; format: binding; conditions: 10 μM VanS, pH 7.5; siamycin I 6 to 90 μM; sviceucin 12 to 180 μM; microcin J25 25 to 200 μM
T4 construct: only the C-terminal His6-tagged VanA-type VanS^127-384 could be obtained as a soluble protein; made in house; host or cells: E. coli BL21(DE3), plasmid pET29b(+) vanS^127-384
T4 sequence (Q06240 whole entry, looked up): T3 sequence (Q06240 whole entry, looked up)
Protocol: Protein purification was carried out on a HisTrap FF Crude 5 mL column (Cytiva, USA) using the ÄKTA start device (Cytiva, USA), following the manufacturer’s recommendations. The column was equilibrated with the purification buffer and then loaded with the soluble fraction. The protein of interest was washed and eluted with an imidazole gradient of 10 mM–500 mM in purification buffer. The purified protein was desalted and concentrated on a Vivaspin 6 30 kDa MWCO column (Cytiva, USA) according to the manufacturer’s recommendations. Protein concentration was determined with the Pierce BCA Protein Assay Kit (Thermo Scientific, USA) according to the manufacturer’s recommendations and then stored at −80°C.
All the experiments were performed in 96 Fast PCR Plates full skirt (Sarstedt, Germany) and in CFX96 Real-Time PCR system (BioRad, USA). Screening was conducted (Table S7) to determine the best buffer and ratios of protein and SYPRO Orange Protein Gel Stain (Sigma-Aldrich, USA). […] The Tm of each well was determined on the Melt Curve panel with a negative peak type. Tm means were calculated for each condition before model analysis. ΔT was calculated from the subtraction of the Tm of the protein with the buffer alone and the Tm with the lasso peptides. […]

[18] = test system: Galleria mellonella larvae; assay: Toxicity toward larvae; format: in vivo; conditions: siamycin I-loaded nanoemulsion, about 18 mg/kg, 90 min and 24 h, observed to 96 h
Protocol: Larvae were infected with the wild-type strain E. faecalis V583, the isogenic vancomycin-sensitive mutant V583 ΔvanB, or an equivalent volume of saline solution. At t90min and t24h post-infection (p.i.), the larvae were treated with the nanoemulsion alone (referred to as formulation), the nanoemulsion loaded with siamycin I (3.92 μg/larvae; about 18 mg/kg), vancomycin (1 μg/larvae; about 4.6 mg/kg) alone, or a combination of both. Larvae survival was assessed, and statistical analysis was performed at the endpoint t96h.
To assess the C1LPs' efficacy as treatment of E. faecalis infection, the strains V583 or V583 ΔvanB were grown without previous C1LP exposition. 20 larvae were used for each condition. At 1.5 and 24 h p.i., larvae were injected with 4.76 mg of vancomycin per kilogram and/or 18 mg of siamycin I per kilogram, or the equivalent volume of nanoemulsion as a control. Larvae killing was then monitored between 1.5 and 96 h p.i.. Data and statistical analysis were performed using the Kaplan-Meier R package and the log -rank test, respectively.

| Compound | Lasso peptide MIC [1] | Lasso peptide MIC [2] | Lasso peptide MIC [3] | Lasso peptide MIC [4] | Lasso peptide MIC [5] | Lasso peptide MIC [6] | Lasso peptide MIC [7] | Lasso peptide MIC [8] | Lasso peptide MIC [9] | Lasso peptide MIC [10] | Lasso peptide MIC [11] | IC50 [12] | Kd [13] | MIC, complete growth inhibition [14] | MIC of peptide in absence of vancomycin [15] | effect on VanS^127-384 autophosphorylation, in words [16] | effect on melting temperature (Tm) of VanS^127-384, in words [17] | toxicity toward the larvae [18] |
| --- | --- | --- | --- | --- | --- | --- | --- | --- | --- | --- | --- | --- | --- | --- | --- | --- | --- | --- |
| CC[C@H](C)[C@@H]1NC(=O)[C@H](Cc2c[nH]c3ccccc23)NC(=O)[C@H](C)NC(=O)[C@H]([C@@H](C)O)NC(=O)CNC(=O)[C@@H]2CSSC[C@@H]3NC(=O)C[C@H](NC(=O)[C@H]([C@@H](C)O)NC(=O)[C@H](CSSC[C@@H](C(=O)N[C@H](C(=O)O)C(C)C)NC1=O)NC(=O)[C@H](CC(=O)O)NC(=O)CNC(=O)CNC(=O)[C@H](Cc1c[nH]c4ccccc14)NC(=O)[C@H](C(C)C)NC3=O)C(=O)N[C@@H](Cc1ccccc1)C(=O)N[C@@H](CC(C)C)C(=O)NCC(=O)N2 [Sviceucin] (CVWGGDCTDFLGCGTAWICV-OH; disulfide 1-13, 7-19; lactam N-9) | >10 µM | >10 µM | >10 µM | >10 µM | >10 µM | >10 µM | >10 µM | >10 µM | >10 µM | >10 µM | >10 µM | 10.8 ± 1.5 µM | 52 ± 1.6 µM | above 10 μM | > 10 µM |  |  |  |
| Microcin J25: unrelated lasso peptide microcin J25 (GGAGHVPEYFVGIGTPISFYG; not fully specified) |  |  |  |  |  |  |  |  |  |  |  |  |  |  |  | had no effect on VanS^127-384 | did not affect the Tm of VanS^127-384 |  |
| CC[C@H](C)[C@@H]1NC(=O)[C@H](C)NC(=O)[C@H](Cc2ccc(O)cc2)NC(=O)CNC(=O)[C@@H]2CSSC[C@@H]3NC(=O)C[C@H](NC(=O)[C@H](CC(N)=O)NC(=O)[C@H](CSSC[C@@H](C(=O)N[C@@H](Cc4ccccc4)C(=O)N[C@@H](Cc4c[nH]c5ccccc45)C(=O)O)NC(=O)[C@H](C(C)C)NC1=O)NC(=O)[C@H](CO)NC(=O)CNC(=O)[C@H](C(C)C)NC(=O)CNC(=O)[C@H](CC(C)C)NC3=O)C(=O)N[C@@H](Cc1ccccc1)C(=O)N[C@@H](C)C(=O)NCC(=O)N2 [Siamycin I] (CLGVGSCNDFAGCGYAIVCFW-OH; disulfide 1-13, 7-19; lactam N-9) | 5 µM | 5 µM | 5 µM | 5 µM | 5 µM | 5 µM | 5 µM | 5 µM | 5 µM | 5 µM | 5 µM |  | 38 ± 1 µM | 5 µM (≈ 10.8 µg/mL) | 5 µM |  |  | did not exhibit toxicity toward the larvae |
